According to PubChem BioAssay AID743417 (Broad Institute, 2014):
Records with an inconclusive call do not appear. The source made the active and inactive calls.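 Rule for the calls: active = compounds lowering the luciferase signal with a fitted half-maximal dose at most twice their top valid dose (cut at about 30 µM in these data); inconclusive = flat fits with moderate signal loss, or poor fits; inactive = the rest.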

Tested on: Clone20 osteoblast Shn3 3'UTR firefly luciferase, 24 h
Assay: Schnurri-3 3'UTR-luciferase signal suppressors – cell-based, Clone20 osteoblasts, luminescence, dry powder, set 2, dose response (AID 743417)

Compound | AC50
CCN1CCN(Cc2ccc(NC(=O)c3cc(NC(=O)c4cncc(-c5ccc(C#N)cc5)c4)cc(OC)c3)cc2C(F)(F)F)CC1 | 3.36 µM
COc1ccc(-c2nc(-c3ccccn3)no2)cc1 | 1.92 µM
N#C/C(=C(\O)Cc1ccccc1)c1nc2ccccc2[nH]1 | > 70 µM (inactive)
COc1ccccc1CNc1nc(Nc2cccc(-c3cnco3)c2)c2sccc2n1 | 5.61 µM
CC(C)(C)C(=O)NC(=S)NNC(=O)c1sc2ccccc2c1Cl | 19.1 µM
COc1ccccc1C(=O)Nc1nc(-c2ccc(S(=O)(=O)N3CCOCC3)cc2)cs1 | 1.21 µM
CCCC(=O)NC(c1cccs1)c1cc(Cl)c2cccnc2c1O (stereo not given) | 3.16 µM
Oc1ccc(-c2nc(-c3ccc(O)c(O)c3)cs2)cc1 | 5.07 µM
Cc1ccccc1CS(=O)(=O)c1ncc(Cl)c(C(=O)Nc2ccc(F)cc2)n1 | 3 µM
CC(C)C(=O)N1CCN(c2ccc(NC(=O)c3ccc([N+](=O)[O-])o3)cc2Cl)CC1 | 0.954 µM
O=S(=O)(c1ccc2c(c1)OCCO2)N1CCN(c2ncnc3sccc23)CC1 | 1.45 µM
CCOC(=O)c1c(-c2ccccc2)oc2cc(CN(C)C)c(O)c(CN(C)C)c12 | 7.81 µM
Cc1ccc(-n2cc(CNCCCn3ccnc3C)c(-c3ccc(F)cc3)n2)cc1 | 20.6 µM
CN(CCO)c1cc(Sc2nc3ccccc3s2)c2nonc2c1[N+](=O)[O-] | 1.55 µM
CN(C)S(=O)(=O)c1cccc(NC(=O)c2cccc(S(=O)(=O)N3CCc4ccccc43)c2)c1 | 3.92 µM
